Tests used:
BRD4(D1) = BRD4(D1) (Homo sapiens (Human), UniProt O60885); test: Inhibitory activity against BRD4(D1), HTRF assay; type: binding
Description: (§1) (+)-JQ1 was used as comparison compound, to evaluated the inhibitory activity of compounds of the invention against BRD4(D1) and BRD4(D2) in vitro.
(§2) The assays of BRD4 (D1) and BRD4 (D2) were conducted in a 384-well polystyrene plate. The test compounds were first serially diluted in DMSO and the test compound/DMSO were transferred to 384-well plates. The final concentration of DMSO in the assay was 0.1%. 2 volumes of protein/peptide mixture were added into 384-well plates, then 2 volumes of assay mixture were added, and shake for 30 s. The plate was incubated at room temperature for 2 h. Then the HTRF signal on EnVision was readed.
(§3) Use equation (1) to fit the date in Excel to obtain the value of the inhibition rate. Inhibition rate (%)=(maximum value−signal value)/(maximum value−minimum value)*100 Equation(1):
(§4) IC50 determination was performed by fitting the data using GraphPad Prism 5.0 software and equation (2). Y=bottom+(Top−bottom)/(1+10^((Log IC50−X)*HillSlope)); Equation(2): wherein, Y represents the percentage of inhibition (%); X represents the concentration of test compounds.
(§5) The IC50 data of the examples were provided in the following table, wherein, A stands for IC50<100 nM; B stands for IC50 is 100-300 nM; C stands for IC50>300 nM.

BRD4(D2) = BRD4(D2) (Homo sapiens (Human), UniProt O60885); test: Inhibitory activity against BRD4(D2), HTRF assay; type: binding
Description: as §1, §2, §3, §4, §5

SMILES: CCS(=O)(=O)Nc1cc(-c2cn(C)c(=O)c3[nH]ccc23)nc2c1nc(C)n2Cc1c(C)cccc1C [Example 68, N-(3-(2,6-dimethylbenzyl)-2-methyl-5-(6-methyl-7-oxo-6,7-dihydro-1H-pyrrolo[2,3-c]pyridin-4-yl)-3H-imidazo[4,5-b]pyridin-7-yl)ethanesulfonamide]
- IC50 (BRD4(D1); class symbols): < 100 nM
- IC50 (BRD4(D2); class symbols): < 100 nM

SMILES: CCS(=O)(=O)Nc1cc(-c2cn(C)c(=O)c3[nH]ccc23)nc2c1ncn2Cc1cc(C(F)(F)F)ccc1F [Example 61, N-(3-(2-fluoro-5-(trifluoromethyl)benzyl)-5-(6-methyl-7-oxo-6,7-dihydro-H-pyrrolo[2,3-c]pyridin-4-yl)-3H-imidazo[4,5-b]pyridin-7-yl)ethanesulfonamide]
- IC50 (BRD4(D1); class symbols): < 100 nM
- IC50 (BRD4(D2); class symbols): < 100 nM

SMILES: CCS(=O)(=O)Nc1cc(-c2cn(C)c(=O)c3[nH]ccc23)cc2c1nc(C)n2Cc1ccc(Br)cc1 [Example 55, N-(2-methyl-6-(6-methyl-7-oxo-6,7-dihydro-1H-pyrrolo[2,3-c]pyridin-4-yl)-1-(4-bromobenzyl)-1H-benzo[d]imidazol-4-yl)ethanesulfonamide]
- IC50 (BRD4(D1); class symbols): < 100 nM
- IC50 (BRD4(D2); class symbols): < 100 nM

SMILES: Cc1nc2ncc(-c3cn(C)c(=O)c4[nH]ccc34)cc2[nH]1 [Example 8, 6-methyl-4-(2-methyl-1H-imidazo[4,5-b]pyridin-6-yl)-1,6-dihydro-7H-pyrrolo[2,3-c]pyridin-7-one]
- IC50 (BRD4(D1); numeric values): 39.9 nM
- IC50 (BRD4(D2); numeric values): 6 nM

SMILES: Cn1cc(-c2cnc3ncnc(Nc4ccc(Cl)cc4)c3c2)c2cc[nH]c2c1=O [Example 37, 4-(4-((4-chlorophenyl)amino)pyrido[2,3-d]pyrimidin-6-yl)-6-methyl-1,6-dihydro-7H-pyrrolo[2,3-c]pyridin-7-one]
- IC50 (BRD4(D1); class symbols): > 300 nM
- IC50 (BRD4(D2); class symbols): > 300 nM

SMILES: Cn1cc(-c2cnc3[nH]c(=O)n(Cc4ccc(Cl)cc4)c3c2)c2cc[nH]c2c1=O [Example 34, 1-(4-chlorobenzyl)-6-(6-methyl-7-oxo-6,7-dihydro-1H-pyrrolo[2,3-c]pyridin-4-yl)-1,3-dihydro-2H-imidazo[4,5-b]pyridin-2-one]
- IC50 (BRD4(D1); numeric values): 107 nM
- IC50 (BRD4(D2); numeric values): 31 nM

SMILES: COc1cccc(Cn2c(C)nc3ncc(-c4c[nH]c(=O)c5[nH]c(C)cc45)cc32)c1 [Example 16, 4-(1-(3-methoxybenzyl)-2-methyl-1H-imidazo[4,5-b]pyridin-6-yl)-2-methyl-1,6-dihydro-7H-pyrrolo[2,3-c]pyridin-7-one]
- IC50 (BRD4(D1); class symbols): 100 to 300 nM
- IC50 (BRD4(D2); class symbols): < 100 nM

SMILES: CCS(=O)(=O)Nc1cc(-c2cn(C)c(=O)c3[nH]ccc23)cc2c1nc(C)n2Cc1cccc(Cl)c1 [Example 53, N-(2-methyl-6-(6-methyl-7-oxo-6,7-dihydro-1H-pyrrolo[2,3-c]pyridin-4-yl)-1-(3-chlorobenzyl)-1H-benzo[d]imidazol-4-yl)ethanesulfonamide]
- IC50 (BRD4(D1); class symbols): < 100 nM
- IC50 (BRD4(D2); class symbols): < 100 nM

SMILES: CCS(=O)(=O)Nc1cc(-c2cn(C)c(=O)c3[nH]ccc23)nc2c1ncn2C(C)c1ccc(Cl)cc1 (stereo not shown) [Example 60, N-(3-(1-(4-chlorophenyl)ethyl)-5-(6-methyl-7-oxo-6,7-dihydro-1H-pyrrolo[2,3-c]pyridin-4-yl)-3H-imidazo[4,5-b]pyridin-7-yl)ethanesulfonamide]
- IC50 (BRD4(D1); class symbols): 100 to 300 nM
- IC50 (BRD4(D2); class symbols): 100 to 300 nM

SMILES: Cc1nc2ncc(-c3cn(C)c(=O)c4[nH]ccc34)nc2n1Cc1ccc(S(C)(=O)=O)cc1 [Example 33, 6-methyl-4-(2-methyl-1-(4-(methylsulfonyl)benzyl)-1H-imidazo[4,5-b]pyrazin-6-yl)-1H-pyrrolo[2,3-c]pyridin-7(6H)-one]
- IC50 (BRD4(D1); class symbols): < 100 nM
- IC50 (BRD4(D2); class symbols): < 100 nM

SMILES: CSc1ccc(Cn2c(C)nc3ncc(-c4cn(C)c(=O)c5[nH]ccc45)cc32)cc1 [Example 3, 6-methyl-4-(2-methyl-1-(4-(methylthio)benzyl)-1H-imidazo[4,5-b]pyridin-6-yl)-1H-pyrrolo[2,3-c]pyridin-7(6H)-one]
- IC50 (BRD4(D1); numeric values): 12.7 nM
- IC50 (BRD4(D2); numeric values): 3.2 nM

SMILES: Cc1cc2ncc(-c3cn(C)c(=O)c4[nH]ccc34)cc2n1Cc1c(Cl)cccc1Cl [Example 38, 4-(1-(2,6-dichlorobenzyl)-2-methyl-1H-pyrrolo[3,2-b]pyridin-6-yl)-6-methyl-1,6-dihydro-7H-pyrrolo[2,3-c]pyridin-7-one]
- IC50 (BRD4(D1); numeric values): 7.3 nM
- IC50 (BRD4(D2); numeric values): 2.2 nM

SMILES: Cn1cc(-c2ccc3ccn(S(=O)(=O)c4ccc(Cl)cc4)c3n2)c2cc[nH]c2c1=O [Example 40, 4-(1-((4-chlorophenyl)sulfonyl)-1H-pyrrolo[2,3-b]pyridin-6-yl)-6-methyl-1,6-dihydro-7H-pyrrolo[2,3-c]pyridin-7-one]
- IC50 (BRD4(D1); numeric values): 10.5 nM
- IC50 (BRD4(D2); numeric values): 2.5 nM

SMILES: CCS(=O)(=O)Nc1cc(-c2cn(C)c(=O)c3[nH]ccc23)cc2c1nc(C)n2Cc1ccc(C(F)(F)F)c(Cl)c1 [Example 52, N-(2-methyl-6-(6-methyl-7-oxo-6,7-dihydro-1H-pyrrolo[2,3-c]pyridin-4-yl)-1-(3-chloro-4-(trifluoromethyl)benzyl)-1H-benzo[d]imidazol-4-yl)ethanesulfonamide]
- IC50 (BRD4(D1); class symbols): < 100 nM
- IC50 (BRD4(D2); class symbols): < 100 nM

SMILES: Cc1nc2ncc(-c3cn(C)c(=O)c4[nH]ccc34)cc2n1Cc1ccc(C(F)(F)F)cc1 [Example 4, 6-methyl-4-(2-methyl-1-(4-(trifluoromethyl)benzyl)-1H-imidazo[4,5-b]pyridin-6-yl)-1H-pyrrolo[2,3-c]pyridin-7(6H)-one]
- IC50 (BRD4(D1); numeric values): 14.6 nM
- IC50 (BRD4(D2); numeric values): 4 nM

SMILES: COc1ccc(Cn2c(C)nc3ncc(-c4cn(CC(C)C)c(=O)c5[nH]ccc45)cc32)cc1 [Example 11, 6-isobutyl-4-(1-(4-methoxybenzyl)-2-methyl-1H-imidazo[4,5-b]pyridin-6-yl)-1,6-dihydro-7H-pyrrolo[2,3-c]pyridin-7-one]
- IC50 (BRD4(D1); class symbols): > 300 nM
- IC50 (BRD4(D2); class symbols): 100 to 300 nM

SMILES: Cc1nc2ncc(-c3cn(C)c(=O)c4[nH]ccc34)nc2n1C(C)c1ccc(Cl)cc1 (stereo not shown) [Example 21, 4-(1-(1-(4-chlorophenyl)ethyl)-2-methyl-1H-imidazo[4,5-b]pyrazin-6-yl)-6-methyl-1,6-dihydro-7H-pyrrolo[2,3-c]pyridin-7-one]
- IC50 (BRD4(D1); numeric values): 6.1 nM
- IC50 (BRD4(D2); numeric values): 1.8 nM

SMILES: Cc1nc2ncc(-c3cn(C)c(=O)c4[nH]ccc34)cc2n1C [Example 7, 4-(1,2-dimethyl-1H-imidazo[4,5-b]pyridin-6-yl)-6-methyl-1,6-dihydro-7H-pyrrolo[2,3-c]pyridin-7-one]
- IC50 (BRD4(D1); numeric values): 52.4 nM
- IC50 (BRD4(D2); numeric values): 10.8 nM

SMILES: CCS(=O)(=O)Nc1cc(-c2cn(C)c(=O)c3[nH]ccc23)cc2c1nc(C)n2Cc1cc(F)cc(C(F)(F)F)c1 [Example 48, N-(2-methyl-6-(6-methyl-7-oxo-6,7-dihydro-1H-pyrrolo[2,3-c]pyridin-4-yl)-1-(3-fluoro-5-(trifluoromethyl)benzyl)-1H-benzo[d]imidazol-4-yl)ethanesulfonamide]
- IC50 (BRD4(D1); class symbols): < 100 nM
- IC50 (BRD4(D2); class symbols): < 100 nM

SMILES: Cc1nc2ncc(-c3cn(C)c(=O)c4[nH]ccc34)nc2n1Cc1ccc(C(F)(F)F)c(F)c1 [Example 28, 4-(1-(3-fluoro-4-trifluoromethylbenzyl)-2-methyl-1H-imidazo[4,5-b]pyrazin-6-yl)-6-methyl-1H-pyrrolo[2,3-c]pyridin-7(6H)-one]
- IC50 (BRD4(D1); class symbols): < 100 nM
- IC50 (BRD4(D2); class symbols): < 100 nM

SMILES: CCS(=O)(=O)Nc1cc(-c2cn(C)c(=O)c3[nH]ccc23)cc2c1nc(C)n2Cc1ccc(Cl)c(C(F)(F)F)c1 [Example 50, N-(2-methyl-6-(6-methyl-7-oxo-6,7-dihydro-1H-pyrrolo[2,3-c]pyridin-4-yl)-1-(3-(trifluoromethyl)-4chlorobenzyl)-1H-benzo[d]imidazol-4-yl)ethanesulfonamide]
- IC50 (BRD4(D1); class symbols): < 100 nM
- IC50 (BRD4(D2); class symbols): < 100 nM

SMILES: Cc1nc2ncc(-c3cn(C)c(=O)c4[nH]ccc34)nc2n1Cc1cccc(Cl)c1 [Example 30, 4-(1-(3-chlorobenzyl)-2-methyl-1H-imidazo[4,5-b]pyrazin-6-yl)-6-methyl-1H-pyrrolo[2,3-c]pyridin-7(6H)-one]
- IC50 (BRD4(D1); class symbols): < 100 nM
- IC50 (BRD4(D2); class symbols): < 100 nM

SMILES: CCS(=O)(=O)Nc1cc(-c2cn(C)c(=O)c3[nH]ccc23)nc2c1ncn2Cc1cc(F)cc(F)c1 [Example 62, N-(3-(3,5-difluorobenzyl)-5-(6-methyl-7-oxo-6,7-dihydro-H-pyrrolo[2,3-c]pyridin-4-yl)-3H-imidazo[4,5-b]pyridin-7-yl)ethanesulfonamide]
- IC50 (BRD4(D1); numeric values): 1.3 nM
- IC50 (BRD4(D2); numeric values): 1.2 nM

SMILES: COc1ccc(Cn2c(C)nc3ncc(-c4cn(Cc5ccccc5)c(=O)c5[nH]ccc45)cc32)cc1 [Example 10, 6-benzyl-4-(1-(4-methoxybenzyl)-2-methyl-1H-imidazo[4,5-b]pyridin-6-yl)-1,6-dihydro-7H-pyrrolo[2,3-c]pyridin-7-one]
- IC50 (BRD4(D1); class symbols): > 300 nM
- IC50 (BRD4(D2); class symbols): > 300 nM

SMILES: CCS(=O)(=O)Nc1cc(-c2cn(C)c(=O)c3[nH]ccc23)cc2c1nc(C)n2Cc1ccc(OC)cc1 [Example 43, N-(1-(4-methoxybenzyl)-2-methyl-6-(6-methyl-7-oxo-6,7-dihydro-H-pyrrolo[2,3-c]pyridin-4-yl)-1H-benzo[d]imidazol-4-yl)ethanesulfonamide]
- IC50 (BRD4(D1); class symbols): < 100 nM
- IC50 (BRD4(D2); class symbols): < 100 nM

SMILES: CCS(=O)(=O)Nc1cc(-c2cn(C)c(=O)c3[nH]ccc23)nc2c1nc(C)n2Cc1ccc(C(F)(F)F)cc1 [Example 65, N-(2-methyl-5-(6-methyl-7-oxo-6,7-dihydro-1H-pyrrolo[2,3-c]pyridin-4-yl)-3-(4-(trifluoromethyl)benzyl)-3H-imidazo[4,5-b]pyridin-7-yl)ethanesulfonamide]
- IC50 (BRD4(D1); class symbols): < 100 nM
- IC50 (BRD4(D2); class symbols): < 100 nM

Source: patent US11466034B2, “Compound functioning as bromodomain protein inhibitor, and composition” (Betta Pharmaceuticals Co., Ltd., priority 2017, dated 2022)
